Laboratory results from US20110288103A1, “COMPOUNDS, COMPOSITIONS, AND METHODS COMPRISING 1,3,4-OXADIAZOLE DERIVATIVES” (Institute for OneWorld Health, priority 2010, published 2011).
Values joined by “and” are separate entries in the source; they are usually repeats but may differ in a detail not shown here. Equal entries are not always repeated. “Also recorded” adds a separate entry of the source.

Columns and labels:
[1] = test system: calcium-activated chloride channels (CaCC); assay: Whole cell patch clamp recording of CaCC-mediated Cl- currents in JME/CF15 cells; assay type: cell-based
Experimental: Effect on calcium-activated chloride channels (CaCC) was investigated in JME/CF15 cells (see Jefferson et al. “Expression of normal and cystic fibrosis phenotypes by continuous airway epithelial cell lines” Am J. Physiol. (1990) December; 259 (6 Pt 1): L496-505). […] Test compound was Compound 10 ('915/2 in FIGS. 1 and 2) and positive control for CaCC was flufenamic acid (FFA).
JME/CF15 cells were prepared for whole cell patch clamp recordings following standard protocols (as described in Fischer et al. “Basolateral Cl channels in primary airway epithelial cultures” Am J Physiol Lung Cell Mol Physiol. (2007) 292:L1432-L1443, which is incorporated herein by reference in its entirety) while incubated in a bath solution as follows (mM): 140 HCl, 158 N-methyl-D-glucamine (NMDG), 2 CaCl2, 1 MgCl2, 12.5 Hepes, 10 glucose, pH 7.4. To selectively activate calcium-activated chloride channels (CaCC), the pipette solution consisted of (in mM) HCl, 160 N-methyl-D-glucamine (NMDG), 1 MgCl2, 5 Hepes, 1 glucose, 5 MgATP, pH 7.4.
(§1) Conventional whole cell patch clamp recordings were made. Effects of compounds were tested in 2 runs at 1 and 10 μM, respectively, on CaCC. To activate CaCC mediated Cl^− conductances, the pipette solution contained 500 nM CaCl2 without EGTA (in order to allow for agonist induced regulation of CaCC) or a mixture of 1.8 mM CaCl2 and 2 mM EGTA resulting in a free concentration of calcium of 500 nM to maintain a stable intracellular calcium concentration.
(§2) CaCC-mediated Cl^− currents were measured with a pipette solution that contained ˜500 nM free Ca to activate CaCC. […] This is likely a Ca-activated K^+ conductance because i) it generates a large outward current (which rules out a Cl^− conductance), and ii) it is transient (likely because intracellular K^+ is exhausted).

[2] = test system: intestinal loops injected with cholera toxin (CTX); design: species or system mice (CD1 strain); conditions: mouse, in vivo
[3] = test system: Ca-activated K+ conductance; assay: Whole cell patch clamp in JME/CF15 cells: additional (K+) conductance; assay type: cell-based
Experimental: as §1, §2
The experimental conditions were not set up to measure a K^+ conductance, i.e., there is no K^+ in the employed solutions, and the measured currents are dependent on the residual K^+ found in cells. […] In an epithelial setting, concurrent block of CaCC and a K^+ conductance may result in weaker blocker efficiency or even in stimulation of secretion.

| SMILES | Block of remaining chloride current after compound 10 ([1]; intracellular calcium unbuffered, 100 μM FFA added after compound 10, FIG. 2) | % Inhibition [2] | Inhibition of CTX-induced fluid secretion (statistical significance) [2] | Mean net fluid secretion (loop weight/loop length) [2] | Block of CaCC-mediated Cl- currents ([1]; intracellular calcium stably buffered (with EGTA), ~500 nM free Ca, compound added to bath, runs at 1 and 10 μM, FIG. 1) | Block of CaCC-mediated (remaining) chloride current ([1]; intracellular calcium unbuffered (low EGTA), ~500 nM free Ca, 10 μM, FIG. 2) | Activation of a K+ conductance ([3]; Ca-buffered solutions) | Activation of an additional conductance (likely Ca-activated K+ conductance) ([3]; intracellular calcium unbuffered (low EGTA), 10 μM, FIG. 2) |
| --- | --- | --- | --- | --- | --- | --- | --- | --- |
| O=C(O)c1ccccc1Nc1cccc(C(F)(F)F)c1 [FFA, flufenamic acid, reference compound] | blocks only slightly more | – | – | – | – | – | – | – |
| O=C(NCc1ccc(Oc2ccccc2)cc1)c1nc(-c2cc(Br)c(O)c(Br)c2)no1 [BF000710032, 3-(3,5-dibromo-4-hydroxyphenyl)-N-(4-phenoxybenzyl)-1,2,4-oxadiazole-5-carboxamide, reference compound] | – | 62.69%^ψ | statistically significant inhibition | – | – | – | – | – |
| CN(Cc1ccc(Cl)c(Cl)c1)C(=O)c1nnc(-c2cccc(NS(=O)(=O)C(F)(F)F)c2)o1 [Compound 10, N-(3,4-dichlorobenzyl)-N-methyl-5-(3-(trifluoromethylsulfonamido)phenyl)-1,3,4-oxadiazole-2-carboxamide] | – | – | statistically significant inhibition | 0.04996 g/cm and 0.04015 g/cm and 0.07645 g/cm | blocking; also recorded: blocked currents | blocking; also recorded: eventually well blocked | not in Ca-buffered | transiently activated an additional conductance; also recorded: activation of a Ca-activated K^+ conductance |
